Assay results: a melting point compilation (Tetko et al.; mined from patent text by program, amines drawn as free bases though some values may be those of a salt)

Row | SMILES | melting point
1 | O=[N+]([O-])c1cccnc1Sc1ncccn1 | 122 to 124 °C
2 | CCOC(=O)c1ccccc1-n1nc(C(=O)OCC)c2csc(N)c2c1=O | 176 to 178 °C
3 | COC(=O)c1nc2sc(CC(C)C)c(C)c2c(=O)[nH]1 | 173 to 175 °C
4 | Cc1ccc(S(=O)(=O)N2[C@@H](CCc3nc(C)no3)CC[C@H]2c2ccc(F)cc2)cc1 (racemic) | 91 °C
5 | COc1cccc(CNC(=O)c2nc3scc(NC(=O)Cc4ccc(C(=O)O)cc4)c3c(=O)[nH]2)c1 | 218 to 219 °C
6 | O=C(Nc1cc(C(F)(F)F)cc(C(F)(F)F)c1)c1ccccc1SSc1ccccc1C(=O)Nc1cc(C(F)(F)F)cc(C(F)(F)F)c1 | 213 to 214 °C
7 | Cc1cc(-c2ncn3c(C(F)(F)F)cc(-c4ccc(F)c(Cl)c4)nc23)ccn1 | 255 °C
8 | Cc1c(-c2cnccn2)ssc1=S | 164 °C
9 | COc1cc(N2CCN(C)CC2)ccc1-c1cnn2c(N)c(-c3cccc(O)c3)cnc12 | 217 to 220 °C
10 | COCc1cc(O)nc(C)n1 | 168 to 170 °C
11 | N#Cc1nn(-c2c(Cl)cc(C(F)(F)F)cc2Cl)c(Br)c1S(=O)(=O)C(F)(F)F | 136 to 137 °C
12 | CCC(=O)C(CCCOc1ccc(OCCCC(C(=O)CC)C(=O)CC)cc1)C(=O)CC | 57 to 58 °C
13 | CN(C)c1ccc([N+](=O)[O-])c(CN)c1 | 97 to 98 °C
14 | CCS(=O)(=O)N(C)c1c(Cl)c(Cl)cc2[nH]c(=O)c(=O)[nH]c12 | > 300 °C
15 | C#CCN(C(C)=O)c1cccc(-c2ccc3nnc(C)n3n2)c1 | 195 to 198 °C
16 | Cc1cc(CCCOc2c(C)cc(-c3noc(CI)n3)cc2C)on1 | 89 to 90 °C
17 | O=C(Nc1ccccc1)Nc1[nH]c2ccccc2c1-c1ccccc1 | 210 to 212 °C
18 | CCN1CCN(Cn2nc(-c3ccsc3)c3c2-c2ccccc2C3)CC1 | 111 to 112 °C
19 | O=C(O)CCc1cn(Cc2ccc(OCc3cccnc3)cc2)nc1-c1ccccc1 | 112 to 113 °C
20 | Cc1nc2n(c1CCN(C)C)CCCC2OCc1ccccc1 (stereo not given) | 68 to 70 °C
21 | CN(C)C(=O)C(c1ccccc1)(c1ccccc1)C1CCNC1 (stereo not given) | 159 to 160 °C
22 | CCc1nnc(-c2ccc(NC=O)cc2)n1-c1ccccc1OC | 250 °C
23 | COc1ccc(-c2nc(Sc3ccccc3)n(C)c2-c2ccc(OC)cc2)cc1 | 115 to 117 °C

Row | SMILES | melting point
24 | CC(C)(C)OC(=O)NCC12CCC1CNC2 (stereo not given) | 83 to 86 °C
25 | CC(C)C(N)C(=O)NC(Cc1ccccc1)C(O)C(O)C(Cc1ccccc1)NC(=O)C(N)C(C)C (stereo not given) | 205 to 207 °C
26 | FC(F)(F)c1ccc(/C=C/c2nc(COc3cccc(CCCn4ccnn4)c3)co2)cc1 | 115 to 116 °C
27 | CCOC(=O)COc1cccc(C(=O)Nc2ccccc2Sc2ccccc2-c2nnn[nH]2)c1 | 130 to 133 °C
28 | O=C1N(Cc2ccc(=O)[nH]c2)c2ccccc2C12COc1cc3c(cc12)OCO3 (stereo not given) | 247 to 250 °C
29 | CS(=O)(=O)c1cc([N+](=O)[O-])c(C(N)=O)cc1N1CC1 | 222 to 224 °C
30 | C=CCC12CCC(c3ccccc31)c1ccccc12 | 42 to 43 °C
31 | Oc1ccc(-n2ccc(Nc3ccccc3)n2)cc1 | 182 to 185 °C
32 | COc1cc2c(=O)n(CCO)c3c4cc5c(cc4ncc3c2cc1OC)OCO5 | 285 to 286 °C
33 | O=C(CCc1cnoc1-c1ccc(Cl)cc1)Nc1cccnc1 | 197 to 198 °C
34 | Cn1c([N+](=O)[O-])cnc1-c1nnc2ccc(N=CN3CCC(O)CC3)nn12 | 188 to 190 °C
35 | O=C(c1ccc(C(=O)N2CC3COCC3C2)cc1)N1CC2COCC2C1 (stereo not given) | 192 to 193 °C
36 | Cc1ccc(C(=O)NC(=S)NCc2ccccc2C(N)=O)cc1 | 145 to 147 °C
37 | Cc1sc2c(c1C)C(c1ccc(Cl)cc1)=N[C@@H](CC(=O)NCCO)c1nnc(C)n1-2 | 254 to 255 °C
38 | CC(C)(C)Nc1nc2cc(Cl)c(Cl)cc2[nH]1 | 219 to 221 °C
39 | O=C(c1cc2cc([N+](=O)[O-])ccc2[nH]1)N1CC(CCl)c2c1cc([N+](=O)[O-])c1ccccc21 (stereo not given) | > 300 °C
40 | COc1ccc(C2=NN(c3ccccc3)C(=O)[C@H]3CC=CC[C@@H]23)cc1OC (relative stereo) | 134 to 135 °C
41 | CS(=O)(=O)c1ccccc1-c1ccc(C(=O)N2Cc3ccc(C(=O)NCc4cccnc4)n3Cc3ccccc32)cc1 | 153 to 156 °C
42 | Cn1ccc(COc2nn3c(-c4ccccc4F)nnc3cc2C2CCC2)n1 | 184 to 186 °C
43 | CN(C)CCNC(=S)Nc1ccc(-c2nnc(CSCCOc3ccccc3)o2)cc1 | 155 to 158 °C
44 | CCOC(=O)NC(=O)C1c2ccccc2Oc2ccc(Br)cc21 (racemic) | 203 °C
45 | Cc1oc(-c2ccccc2)nc1COc1ccc(CON=C(CCCC(C)(C)C(=O)O)c2ccccc2)cc1 | 111 to 112 °C
46 | Cc1c(N)c2c(c3c1C(c1ccc(C(C)C)cc1)CO3)CCCC2 (stereo not given) | 106 to 107 °C

Row | SMILES | melting point
47 | OC(CCNCc1ccccc1)(c1ccccc1)c1ccccc1 | 145 to 146 °C
48 | NC(=O)C[C@H](NC(=O)c1ccc(OCc2ccccc2)cc1OCc1ccccc1)C(=O)N1CCN(Cc2ccccc2)CC1 | 66 to 68 °C
49 | CCCc1c(Cc2ccc(-c3ccccc3-c3nnn[nH]3)cc2)c(O)nc2ccnn12 | 260 °C
50 | CCOC(=O)c1cc(C)n(-c2cccc(N(C)C)c2)c1-c1ccccc1 | 112 to 114 °C
51 | FC(F)(F)c1nc(-c2ccc(NCc3ccccc3)cn2)no1 | 81 to 84 °C
52 | COc1cc(C)cc(OC)c1CCCCCNC(=O)[C@@H](CCCCN)NC(=O)c1cc2ccccc2n1CC(=O)O | 173 °C
53 | COc1cccc2c1nc(C(F)F)n2-c1nc(Nc2cccnc2)nc(N2CCOCC2)n1 | 221 to 223 °C
54 | CCCCCCCCCCOCC(COCCCCCCCCCC)(CC(=O)O)CC(=O)O | 68 to 71 °C
55 | O=C(NC(Cc1ccc(OCc2ccccc2)cc1)C(=O)O)c1cn2cc(-c3ccncc3)ccc2n1 (stereo not given) | 268 °C
56 | Fc1ccc(OCc2ccnc3c(Cl)cccc23)cc1 | 144 to 145 °C
57 | CCOC(OCC)c1nc(C2CC2)nc(N)c1Cl | 104 to 110 °C
58 | Cc1ccc(N2C(=O)C(O)=C(C(=O)c3ccc(C(C)C)cc3)C2c2ccc(Cn3cccn3)cc2)nn1 (stereo not given) | 263 °C
59 | Cc1nc2c(C#N)cnn2c2c1CCN2C(C)(C)C | 220 to 224 °C
60 | NS(=O)(=O)c1ccc(-n2nc(C(F)(F)F)cc2-c2ccc(-c3cscn3)c(C(F)(F)F)c2)cn1 | 114 °C
61 | CCOC(CNC(=S)Nc1ccccn1)OCC | 132 to 133 °C
62 | CCC#CC(C)(C)NC(=O)C(CC)Oc1cncc(Br)c1 (stereo not given) | 90 to 92 °C
63 | CC(C)(C)n1nc(Cc2ccccc2)c2c(N)nc(-c3ccncc3)nc21 | 188 to 189 °C
64 | COC(=O)c1nn(-c2ccc(Cl)cc2Cl)c(-c2ccc(Cl)cc2)c1C | 133 °C
65 | CCOC(=O)c1c(N2CCN(C)CC2)c2ccccc2n(C)c1=O | 144 to 148 °C
66 | Cc1cccn2cc(CN3CCN(c4ccc(Cl)cc4)CC3)nc12 | 102 to 104 °C
67 | Oc1ccc(-c2nn(C3CCCCC3)c3c(Cl)cccc23)cc1 | 176 to 177 °C

Next, values leading:

Row | melting point | SMILES
68 | 175 to 177 °C | Cc1nc(SCC(N)=O)nc(C)c1Br
69 | 142 to 144 °C | CCOC(=O)c1c(C)cc2c(c1C)C(=O)OCC2=O
70 | 91 to 92 °C | CC(=O)CSc1c([N+](=O)[O-])ccc(F)c1Cl
71 | 173 to 175 °C | Nc1nc(C(F)(F)F)nc2c1ncn2C1OC(CO)C(O)C1O (stereo not given)
72 | 198 °C | CC(Oc1cc(-c2ccccc2)nc2ccccc12)C(=O)N1CCSCC1 (stereo not given)
73 | 74 °C | CC=CN1C(=O)CN(c2ccccc2)C1=S
74 | 173 to 175 °C | O=C1Cc2ccccc2SN(CCO)C1
75 | 169 to 173 °C | C[C@@H]1NC(=O)C[C@]1(C)O
76 | 234 to 236 °C | O=C(O)c1ccnc(NC(=O)C(CS)Cc2ccccc2)c1 (stereo not given)
77 | 214 to 216 °C | CN(C)C(=O)c1cc(C(=O)O)c2cc(Cc3ccc(F)cc3)cnc2c1O
78 | 59 to 61 °C | CC1(C(=O)O)CC1(F)F (stereo not given)
79 | 195 to 196 °C | Cc1nc(N2CCN(Cc3ccc(OC(F)(F)F)cc3)C2=O)sc1C(=O)NCCC1CC1
80 | 108 to 110 °C | COC(=O)CCc1cc2ccc(C(F)(F)F)cc2[nH]1
81 | 300 °C | N=C(O)c1cc(C(O)=NCCS)c(C(=O)O)cc1C(=O)O
82 | 101 °C | CC(NSC(=O)OC(C)(C)C)C(=O)n1c(=O)[nH]c2ccccc21 (stereo not given)
83 | 160 to 161 °C | CCCCc1cc2ccccc2c(Oc2ccc(/C=C/C(=O)O)cc2)c1-c1ccccc1
84 | 181 to 184 °C | Cc1cnc(NCCc2ccccn2)c(=O)n1NC(=O)CCc1cc(C(F)(F)F)ccc1F

Row | melting point | SMILES
85 | 160 to 162 °C | Cn1c(C(F)(F)F)cc(=O)n(-c2c(F)cc(Cl)c3c2OC(C)(C)C3=O)c1=O
86 | 38 to 39 °C | CCCCCCC(=O)COS(=O)(=O)c1ccc(OCC)cc1
87 | 138 °C | N#Cc1c(O)cc(C(F)(F)F)cc1Cl
88 | 250 to 253 °C | CCn1cc(C(=O)O)c(=O)c2cc(F)c(N3CC4CCC3CN4)nc21 (stereo not given)
89 | 148 to 150 °C | O=C(O)Cc1ccc(Oc2ccc(I)cc2)cc1
90 | 184 °C | CN1CCN(CCCNc2nc(N)c(C(=O)c3ccc(Cl)s3)s2)CC1
91 | 211 to 214 °C | Cc1ccc2c(c1)c1c(n2C(=O)c2ccc(Cl)cc2)CCC(C(=O)O)C1 (stereo not given)
92 | > 250 °C | Cn1c(-c2c(Cl)cccc2Cl)nc2cc(C(=O)O)ccc21
93 | 134 to 135 °C | Cc1oc(-c2ccc(F)cc2)cc1COc1cccc(CSC(C)(C)C(=O)O)c1
94 | 227 to 229 °C | Cc1ccc(-c2nc3ccc(C(=O)O)cn3c2CN(C)C(=O)CC(C)C)cc1
95 | 256 to 259 °C | CNC(=O)C1=C(C)OC(C)=C(C(=O)NC)C1c1ccc(Cl)cc1
96 | 190 to 192 °C | Nc1ccc(F)c(-c2ccncc2)c1F
97 | 100 to 101 °C | O=C(O)CCC(O)c1ccc(-c2ccc(Cl)cc2)o1 (stereo not given)
98 | 134 to 135 °C | COC(=O)C12C3C4C1(C(=O)OC)C1(Cl)C2C3(C(=O)OC)C41C(=O)OC (stereo not given)
99 | 96 to 97 °C | CC(F)(F)c1cccc(C(=O)O)c1
100 | 169 to 170 °C | Cc1ccc(C)c(C2CC(=O)C=C(N)C2)c1 (stereo not given)
